Laboratory results reported in patent US9580524B2, “Vinylcyclopropane, monomer composition, polymer, polymer composition, and article” (Dexerials Corporation, priority 2014, dated 2017).

Key:
[1] = Volume change upon polymerization (monomer and polymer density by dry automatic pycnometer); assay type: physicochemical; conditions: for Volume change: ((Monomer density)−(Polymer density))/(Monomer density)×100, positive = expansion, negative = shrinkage; for Polymer density: after polymerization; for Polymer density / Monomer density: 25° C.; for Monomer density: prior to polymerization
Description: Volume change relative to monomer volume refers to the change in volume of the polymer relative to the volume of the monomer or monomers that are constituent components of the polymer. This volume change relative to monomer volume is obtained through the following equation by measuring the density of the monomer(s) at 25° C. prior to polymerization (monomer density) and the density of the polymer at 25° C. after polymerization (polymer density). ((Monomer density)−(Polymer density))/(Monomer density)×100(%)
First, polymerization of the obtained monomer (compound represented by structural formula (6)) was performed as follows.
A freezing ampoule (20 mL) was charged with 4.03 mg of AIBN (4 mol %), 440.2 mg (0.61 mmol) of Ad-MVCP, and 0.267 g (0.31 mL) of toluene, and the monomer was dissolved. Thereafter, freeze drying was performed three times and dissolved oxygen was removed. The freezing ampoule was immersed in an oil bath and was heated for 48 hours at 60° C. to polymerize the monomer. After polymerization, the freezing ampoule was cooled by liquid nitrogen to quench radicals. Next, 50 mL of toluene was added to the freezing ampoule in order to dissolve undissolved components other than the polymer and suction filtration was then performed. Polymer filtered onto filter paper as a result was washed with toluene and acetone, was vacuum dried for 48 hours at 100° C., and was collected as a white solid polymer. The collected polymer was used as an evaluation sample.
The volume change upon polymerization was calculated using the following equation by measuring the monomer density and polymer density of each sample prepared by the procedure described above using a dry automatic pycnometer (AccuPyc II 1340 produced by Shimadzu Corporation). ((Monomer density)−(Polymer density))/(Monomer density)×100(%)
A positive calculated value indicates volume expansion whereas a negative calculated value indicates volume shrinkage.
Note that in Comparative Example 3, polymerization of the monomer was performed by bulk polymerization based on the aforementioned document. A freezing ampoule (20 mL) was charged with 15.8 mg (0.096 mmol) of AIBN and 1.000 g (2.41 mmol) of Me-MVCP, and the monomer was dissolved. Thereafter, freeze drying was performed three times and dissolved oxygen was removed. The freezing ampoule was immersed in an oil bath and was heated for 48 hours at 60° C. to polymerize the monomer. After polymerization, the freezing ampoule was cooled by liquid nitrogen to quench radicals. Next, 50 mL of toluene was added to the freezing ampoule in order to dissolve undissolved components other than the polymer and suction filtration was then performed. Polymer filtered onto filter paper as a result was sufficiently washed with toluene and acetone, was vacuum dried for 48 hours while heating at 100° C., and was collected as a white solid polymer. The collected polymer was used as an evaluation sample.
Note that in Example 2, 0.159 g (0.479 mmol) of DCP, 0.341 g (0.479 mmol) of Ad-MVCP, and 0.2 mL of toluene (dehydrated) were added into an ampoule with a stirrer, were heated to 70° C., and were homogenized by stirring. After performing cooling to room temperature, a dilute solution of AIBN (6.3 mg (0.038 mmol) of AIBN dissolved in 0.28 mL of toluene (dehydrated)) was added to the ampoule. The ampoule was sealed using a gas burner after performing freeze degassing of the ampoule. The ampoule was immersed in an oil bath and a reaction was carried out for 48 hours at 60° C. After the reaction, the ampoule was immersed in liquid nitrogen and a polymer was collected. The resultant polymer was sufficiently washed with toluene and acetone and was vacuum dried for 48 hours while heating at 100° C., and a white solid polymer was collected. The collected polymer was used as an evaluation sample.
Ad-MVCP in an amount of 0.153 g (0.215 mmol) and DCP in an amount of 0.072 g (0.216 mmol) were dissolved and homogenized in 0.3 mL of acetone. […]

[2] = Polymer heat resistance (thermogravimetric analyzer); assay type: physicochemical; conditions: homopolymer
Description: Heat resistance of the polymer used in (i) evaluation of volume change upon polymerization was evaluated using a thermogravimetric analyzer (producer: Seiko Instruments Incorporated, product name: EXSTAR6000). Furthermore, thermogravimetric change of the obtained polymer was measured to obtain a temperature at which a 10% reduction in weight was reached and the 10% weight loss temperature was taken to be the pyrolysis temperature (Td^10).

[3] = Polymer dynamic viscoelasticity (DMA, tension mode) of the cured product; assay type: physicochemical; conditions: for Tg (glass-transition temperature): maximum of tan δ, frequency 11.0 Hz
Description: The obtained monomer was homogenized with 0.5 parts by mass of PERHEXA HC (producer: NOF Corporation) and 0.2 mL of acetone added thereto, was subsequently poured into a 10 mm×40 mm×0.5 mm silicone rubber sheet mold prepared on an aluminum plate, and was transferred into a vacuum oven. Acetone solvent was first vaporized while maintaining the temperature at room temperature and the pressure at 20 cmHg to 40 cmHg, and thereafter the pressure was restored to normal pressure and curing was performed for 5 hours at 140° C. to prepare a cured product. The cured product that was prepared was evaluated by measurement as described below using a tension mode of a dynamic mechanical analyzer (DMA).
The cured product was set in the dynamic mechanical analyzer (producer: TA Instruments, product name: RSA3) and the device was used to measure the storage modulus (E′) in a temperature range of from 30° C. to 300° C. with a heating rate of 10.0° C./min. Furthermore, the temperature corresponding to a maximum value of tan δ (loss modulus/storage modulus) obtained under a measurement condition of a frequency of 11.0 Hz was taken to be the glass-transition temperature (Tg).

[4] = Monomer solubility in various solvents; assay type: physicochemical; conditions: 40 mg monomer in 1.0 mL
Description: The solubility of 40 mg of the obtained monomer in 1.0 mL of various solvents (methyl ethyl ketone (MEK), acetone, propylene glycol monomethyl ether acetate (PGMEA), and cyclohexanone) was evaluated.

[5] = background statement; cited from earlier work

Row | Volume change [1] | Polymer density [1] | Monomer density [1] | Td^10 (pyrolysis temperature, 10% weight loss temperature) [2] | Tg (glass-transition temperature) [3] | Solubility ([4]; Acetone) | Solubility ([4]; Cyclohexanone) | Solubility ([4]; MEK) | Solubility ([4]; PGMEA) | Compound | solubility in solvents such as acetone [5] | E′ (storage modulus) ([3]; 50° C., 5 hours at 140° C.) | E′ (storage modulus) ([3]; 120° C.) | E′ (storage modulus) ([3]; 140° C.) | E′ (storage modulus) ([3]; 160° C.)
1 | +4.3% | 1.127 g/mL | 1.178 g/mL | 361 °C | 23 °C | Poor | Mediocre | Poor | Poor | C=CC1CC1(C(=O)OC12CC3CC(CC(C3)C1)C2)C(=O)OC12CC3CC(CC(C3)C1)C2 (stereo not shown) [Comparative Example 2, 1,1-bis[(1-adamantyloxy)carbonyl]-2-vinylcyclopropane] | poor | – | – | – | –
2 | +6.1% | 1.198 g/mL | 1.275 g/mL | 399 °C | 235 °C | Excellent | Excellent | Excellent | Excellent | C=CC1CC1(C(=O)OC12CC3CC(CC(C3)C1)C2)C(=O)OC12CC3CC(C1)CC(OC(=O)C1(C(=O)OC45CC6CC(CC(C6)C4)C5)CC1C=C)(C3)C2 (stereo not shown) [Example 1, 1,3-bis[(1-adamantyloxycarbonyl-2-vinylcyclopropane-1-yl)carbonyloxy]adamantane] | – | 1.10 × 10^9 Pa | 7.40 × 10^8 Pa | 6.60 × 10^8 Pa | 7.00 × 10^8 Pa

Row | Compound | Volume change [1] | Polymer density [1] | Monomer density [1] | Td^10 (pyrolysis temperature, 10% weight loss temperature) [2] | Tg (glass-transition temperature) [3] | Solubility ([4]; Acetone) | Solubility ([4]; Cyclohexanone) | Solubility ([4]; MEK) | Solubility ([4]; PGMEA) | solubility in solvents such as acetone [5] | E′ (storage modulus) ([3]; 50° C., 5 hours at 140° C.) | E′ (storage modulus) ([3]; 120° C.) | E′ (storage modulus) ([3]; 140° C.) | E′ (storage modulus) ([3]; 160° C.)
3 | tricyclodecane dimethanol dimethacrylate [Comparative Example 1] | −8.5% | 1.194 g/mL | 1.101 g/mL | – | >271.1 °C | – | – | – | – | – | 1.70 × 10^9 Pa | 9.60 × 10^8 Pa | 8.00 × 10^8 Pa | 6.60 × 10^8 Pa
